Reference: US12173018B2, “Penicillin-binding protein inhibitors” (priority 2018, dated 2024)
Like-named read-outs stand apart in the source and are kept apart here.

Experiments:
Type in all cases: cell-based
[1] = tested on: A. baumannii ATCC 19606; assay: Broth microdilution MIC, A. baumannii ATCC 19606; settings: Acinetobacter baumannii
In short: (§1)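 CLSI broth microdilution in cation-supplemented Mueller-Hinton broth; 2-fold compound dilutions inoculated at 5×10^5 CFU/mL from a 3-5 h log-phase culture. Plates incubated 16-20 hours at 37° C; MIC read visually as lowest concentration with no growth.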

[2] = tested on: P. aeruginosa PAO1; assay: Broth microdilution MIC, P. aeruginosa PAO1; settings: Pseudomonas aeruginosa
In short: as §1

[3] = tested on: P. aeruginosa ATCC 35151; assay: microbe, parasite or virus in culture; settings: Pseudomonas aeruginosa, ATCC35151; hyper-permeable P. aeruginosa ATCC 35151; read-out: MIC P. aeruginosa ATCC 35151
In short: as §1

[4] = ATCC19606, A. baumannii ATCC 19606, broth microdilution, read-out: MIC A. baumannii ATCC 19606
[5] = P. aeruginosa PAO1, broth microdilution, read-out: MIC P. aeruginosa PAO1
[6] = ATCC19606, read-out: MIC A. baumannii ATCC 19606
[7] = PAO1, read-out: MIC P. aeruginosa PAO1

## CCN1CCN(C(=O)NC(C(=O)N[C@H]2Cc3ccc(F)c(C(=O)O)c3OB2O)c2ccc(O)c(O)c2Cl)C(=O)C1=O (stereo partly drawn) [Example 124, (3R)-3-(2-(2-chloro-3,4-dihydroxyphenyl)-2-(4-ethyl-2,3-dioxopiperazine-1-carboxamido)acetamido)-7-fluoro-2-hydroxy-3,4-dihydro-2H-benzo[e][1,2]oxaborinine-8-carboxylic acid]
[1]; [4]
  MIC: 0.5 to 1 µg/mL
[2]; [5]
  MIC: 0.5 to 1 µg/mL
[3]
  MIC: < 0.25 µg/mL

## CCCN1CCN(C(=O)NC(C(=O)N[C@H]2Cc3ccc(F)c(C(=O)O)c3OB2O)c2ccc(O)c(O)c2Cl)C(=O)C1=O (stereo partly drawn) [Example 125]
[1]; [4]
  MIC: < 0.25 µg/mL
[2]; [5]
  MIC: 0.5 to 1 µg/mL
[3]
  MIC: < 0.25 µg/mL

## CCN1CCN(C(=O)NC(C(=O)N[C@H]2Cc3ccc(F)c(C(=O)O)c3OB2O)c2ccc(O)c(O)c2F)C(=O)C1=O (stereo partly drawn) [Example 149, (3R)-3-(2-(4-ethyl-2,3-dioxopiperazine-1-carboxamido)-2-(2-fluoro-3,4-dihydroxyphenyl)acetamido)-7-fluoro-2-hydroxy-3,4-dihydro-2H-benzo[e][1,2]oxaborinine-8-carboxylic acid]
[1]; [4]
  MIC: 8 to 16 µg/mL
[2]; [5]
  MIC: 2 to 4 µg/mL
[3]
  MIC: < 0.25 µg/mL

## CCN1CCN(C(=O)N[C@@H](C(=O)N[C@H]2Cc3ccc(F)c(C(=O)O)c3OB2O)c2ccc(O)c(F)c2)C(=O)C1=O [Example 161, (R)-3-((R)-2-(4-ethyl-2,3-dioxopiperazine-1-carboxamido)-2-(3-fluoro-4-hydroxyphenyl)acetamido)-7-fluoro-2-hydroxy-3,4-dihydro-2H-benzo[e][1,2]oxaborinine-8-carboxylic acid]
[1]; [4]
  MIC: > 128 µg/mL
[2]; [5]
  MIC: > 128 µg/mL
[3]
  MIC: < 0.25 µg/mL

## CCN1CCN(C(=O)N[C@@H](C(=O)N[C@H]2Cc3cccc(C(=O)O)c3OB2O)c2ncc(O)cc2F)C(=O)C1=O [Example 177, (R)-3-((R)-2-(4-ethyl-2,3-dioxopiperazine-1-carboxamido)-2-(3-fluoro-5-hydroxypyridin-2-yl)acetamido)-2-hydroxy-3,4-dihydro-2H-benzo[e][1,2]oxaborinine-8-carboxylic acid]
[1]; [4]
  MIC: > 128 µg/mL
[2]; [5]
  MIC: > 128 µg/mL
[3]
  MIC: 0.5 to 1 µg/mL

## CCN1CCN(C(=O)NC(C(=O)N[C@H]2Cc3ccc(F)c(C(=O)O)c3OB2O)c2ccc(S(N)(=O)=O)cc2)C(=O)C1=O (stereo partly drawn) [Example 181, (3R)-3-(2-(4-ethyl-2,3-dioxopiperazine-1-carboxamido)-2-(4-sulfamoylphenyl)acetamido)-7-fluoro-2-hydroxy-3,4-dihydro-2H-benzo[e][1,2]oxaborinine-8-carboxylic acid]
[1]; [4]
  MIC: > 128 µg/mL
[2]; [5]
  MIC: > 128 µg/mL
[3]
  MIC: 0.5 to 1 µg/mL

## NS(=O)(=O)c1ccc(C(NC(=O)N2CCN(CCF)C(=O)C2=O)C(=O)N[C@H]2Cc3ccc(F)c(C(=O)O)c3OB2O)cc1 (stereo partly drawn) [Example 182, (3R)-7-fluoro-3-(2-(4-(2-fluoroethyl)-2,3-dioxopiperazine-1-carboxamido)-2-(4-sulfamoylphenyl)acetamido)-2-hydroxy-3,4-dihydro-2H-benzo[e][1,2]oxaborinine-8-carboxylic acid]
[1]; [4]
  MIC: > 128 µg/mL
[2]; [5]
  MIC: > 128 µg/mL
[3]
  MIC: 0.5 to 1 µg/mL

## O=C(O)c1c(F)ccc2c1OB(O)[C@@H](NC(=O)C(NC(=O)N1CCN(CCF)C(=O)C1=O)c1ncc(O)cc1F)C2 (stereo partly drawn) [Example 183, (3R)-7-fluoro-3-(2-(3-fluoro-5-hydroxypyridin-2-yl)-2-(4-(2-fluoroethyl)-2,3-dioxopiperazine-1-carboxamido)acetamido)-2-hydroxy-3,4-dihydro-2H-benzo[e][1,2]oxaborinine-8-carboxylic acid]
[1]; [4]
  MIC: > 128 µg/mL
[2]; [5]
  MIC: > 128 µg/mL
[3]
  MIC: < 0.25 µg/mL

## CCN1CCN(C(=O)N[C@H](C(=O)N[C@H]2Cc3ccc(F)c(C(=O)O)c3OB2O)c2ccc(O)c(O)c2Cl)C(=O)C1=O [Example 188, (R)-3-((S)-2-(2-chloro-3,4-dihydroxyphenyl)-2-(4-ethyl-2,3-dioxopiperazine-1-carboxamido)acetamido)-7-fluoro-2-hydroxy-3,4-dihydro-2H-benzo[e][1,2]oxaborinine-8-carboxylic acid]
[1]; [4]
  MIC: 32 to 64 µg/mL
[2]; [5]
  MIC: 8 to 16 µg/mL
[3]
  MIC: 0.5 to 1 µg/mL

## CCN1CCN(C(=O)N[C@@H](C(=O)N[C@H]2Cc3ccc(F)c(C(=O)O)c3OB2O)c2ccc(O)c(O)c2Cl)C(=O)C1=O [Example 189, (R)-3-((R)-2-(2-chloro-3,4-dihydroxyphenyl)-2-(4-ethyl-2,3-dioxopiperazine-1-carboxamido)acetamido)-7-fluoro-2-hydroxy-3,4-dihydro-2H-benzo[e][1,2]oxaborinine-8-carboxylic acid]
[1]; [4]
  MIC: < 0.25 µg/mL
[2]; [5]
  MIC: < 0.25 µg/mL
[3]
  MIC: < 0.25 µg/mL

## CCN1CCN(C(=O)N[C@@H](C(=O)N[C@H]2Cc3cccc(C(=O)O)c3OB2O)c2ccc(O)c(O)c2Cl)C(=O)C1=O [Example 190, (R)-3-((R)-2-(2-chloro-3,4-dihydroxyphenyl)-2-(4-ethyl-2,3-dioxopiperazine-1-carboxamido)acetamido)-2-hydroxy-3,4-dihydro-2H-benzo[e][1,2]oxaborinine-8-carboxylic acid]
[1]; [4]
  MIC: < 0.25 µg/mL
[2]; [5]
  MIC: 0.5 to 1 µg/mL
[3]
  MIC: < 0.25 µg/mL

## CCN1C[C@@H](C)N(C(=O)NC(C(=O)N[C@H]2Cc3cccc(C(=O)O)c3OB2O)c2ncc(O)cc2F)C(=O)C1=O (stereo partly drawn) [Example 191, (3R)-3-(2-((R)-4-ethyl-6-methyl-2,3-dioxopiperazine-1-carboxamido)-2-(3-fluoro-5-hydroxypyridin-2-yl)acetamido)-2-hydroxy-3,4-dihydro-2H-benzo[e][1,2]oxaborinine-8-carboxylic acid]
[1]; [4]
  MIC: > 128 µg/mL
[2]; [5]
  MIC: > 128 µg/mL
[3]
  MIC: 2 to 4 µg/mL

## CCN1CCN(C(=O)NC(C(=O)N[C@H]2Cc3ccc(F)c(C(=O)O)c3OB2O)c2ccc(O)c(O)c2Cl)C(O)C1=O (stereo partly drawn) [Example 194, (3R)-3-(2-(2-chloro-3,4-dihydroxyphenyl)-2-(4-ethyl-2-hydroxy-3-oxopiperazine-1-carboxamido)acetamido)-7-fluoro-2-hydroxy-3,4-dihydro-2H-benzo[e][1,2]oxaborinine-8-carboxylic acid]
[1]; [6]
  MIC: 0.5 to 1 µg/mL
[2]; [7]
  MIC: 8 to 16 µg/mL
[3]
  MIC: < 0.25 µg/mL

## NS(=O)(=O)c1ccc(C(NC(=O)N2CCN(CCF)C(=O)C2=O)C(=O)N[C@H]2Cc3cccc(C(=O)O)c3OB2O)c(F)c1 (stereo partly drawn) [Example 204, (3R)-3-(2-(2-fluoro-4-sulfamoylphenyl)-2-(4-(2-fluoroethyl)-2,3-dioxopiperazine-1-carboxamido)acetamido)-2-hydroxy-3,4-dihydro-2H-benzo[e][1,2]oxaborinine-8-carboxylic acid]
[1]; [4]
  MIC: > 128 µg/mL
[2]; [5]
  MIC: > 128 µg/mL
[3]
  MIC: 0.5 to 1 µg/mL

## CCN1CCN(C(=O)NC(C(=O)N[C@H]2Cc3cccc(C(=O)O)c3OB2O)c2nc(N)sc2F)C(=O)C1=O (stereo partly drawn) [Example 205, (3R)-3-(2-(2-amino-5-fluorothiazol-4-yl)-2-(4-ethyl-2,3-dioxopiperazine-1-carboxamido)acetamido)-2-hydroxy-3,4-dihydro-2H-benzo[e][1,2]oxaborinine-8-carboxylic acid]
[1]; [4]
  MIC: 32 to 64 µg/mL
[2]; [5]
  MIC: > 128 µg/mL
[3]
  MIC: < 0.25 µg/mL

## CCN1C[C@H](C)N(C(=O)NC(C(=O)N[C@H]2Cc3ccc(F)c(C(=O)O)c3OB2O)c2ccc(O)c(O)c2Cl)C(=O)C1=O (stereo partly drawn) [Example 206, (3R)-3-(2-(2-chloro-3,4-dihydroxyphenyl)-2-((S)-4-ethyl-6-methyl-2,3-dioxopiperazine-1-carboxamido)acetamido)-7-fluoro-2-hydroxy-3,4-dihydro-2H-benzo[e][1,2]oxaborinine-8-carboxylic acid]
[1]; [4]
  MIC: < 0.25 µg/mL
[2]; [5]
  MIC: 2 to 4 µg/mL
[3]
  MIC: < 0.25 µg/mL

## CCN1C[C@H](C)N(C(=O)NC(C(=O)N[C@H]2Cc3ccc(F)c(C(=O)O)c3OB2O)c2ncc(O)cc2F)C(=O)C1=O (stereo partly drawn) [Example 208, (3R)-3-(2-((S)-4-ethyl-6-methyl-2,3-dioxopiperazine-1-carboxamido)-2-(3-fluoro-5-hydroxypyridin-2-yl)acetamido)-7-fluoro-2-hydroxy-3,4-dihydro-2H-benzo[e][1,2]oxaborinine-8-carboxylic acid]
[1]; [4]
  MIC: > 128 µg/mL
[2]; [5]
  MIC: > 128 µg/mL
[3]
  MIC: < 0.25 µg/mL

## CCN1CCN(C(=O)NC(C(=O)N[C@H]2Cc3cccc(C(=O)O)c3OB2O)c2ccc(S(N)(=O)=O)c(F)c2)C(=O)C1=O (stereo partly drawn) [Example 210, (3R)-3-(2-(4-ethyl-2,3-dioxopiperazine-1-carboxamido)-2-(3-fluoro-4-sulfamoylphenyl)acetamido)-2-hydroxy-3,4-dihydro-2H-benzo[e][1,2]oxaborinine-8-carboxylic acid]
[1]; [4]
  MIC: > 128 µg/mL
[2]; [5]
  MIC: > 128 µg/mL
[3]
  MIC: 0.5 to 1 µg/mL

## CCN1CCN(C(=O)NC(C(=O)N[C@H]2Cc3cccc(C(=O)O)c3OB2O)c2ccc(C(=O)O)cc2)C(=O)C1=O (stereo partly drawn) [Example 212, (3R)-3-(2-(4-carboxyphenyl)-2-(4-ethyl-2,3-dioxopiperazine-1-carboxamido)acetamido)-2-hydroxy-3,4-dihydro-2H-benzo[e][1,2]oxaborinine-8-carboxylic acid]
[1]; [6]
  MIC: > 128 µg/mL
[2]; [7]
  MIC: 32 to 64 µg/mL
[3]
  MIC: < 0.25 µg/mL

## O=C(O)c1cccc2c1OB(O)[C@@H](NC(=O)C(NC(=O)N1CCN(CCF)C(=O)C1=O)c1ccc(S(=O)(=O)NCCO)cc1)C2 (stereo partly drawn) [Example 213, (3R)-3-(2-(4-(2-fluoroethyl)-2,3-dioxopiperazine-1-carboxamido)-2-(4-(N-(2-hydroxyethyl)sulfamoyl)phenyl)acetamido)-2-hydroxy-3,4-dihydro-2H-benzo[e][1,2]oxaborinine-8-carboxylic acid]
[1]; [4]
  MIC: > 128 µg/mL
[2]; [5]
  MIC: > 128 µg/mL
[3]
  MIC: 2 to 4 µg/mL
